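Growth conditions: 96-well plates. Treatment: test compound, 48 hours, 5 concentrations. Analysis: linear interpolation between bracketing concentrations; unreached endpoints set to highest concentration. GI50: concentration for 50% inhibition of growth.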 Activity calls are given as the source filed them. Rule as the data show it: active = GI50 up to about 1.1 µM and inactive = higher.
Legend:
Assay in all cases: NCI tumour cell line growth inhibition, 48 h
[1] = test system: M14
[2] = test system: SNB-19
[3] = test system: IGROV-1
[4] = test system: UACC-257
[5] = test system: M19-MEL
[6] = test system: SK-MEL-5
[7] = test system: NCI-H23
[8] = test system: EKVX
[9] = test system: SN12C
[10] = test system: 786-0
[11] = test system: XF498
[12] = test system: OVCAR-5
[13] = test system: HOP-62
[14] = test system: DMS-114
[15] = test system: SF-539
[16] = test system: SK-OV-3
[17] = test system: LXFL 529
[18] = test system: SF-268
[19] = test system: CAKI-1
[20] = test system: A549
[21] = test system: SK-MEL-28
[22] = test system: SF-295
[23] = test system: Malme-3M
[24] = test system: LOX IMVI
[25] = test system: SW-620
[26] = test system: COLO 205
[27] = test system: RPMI-8226
[28] = test system: KM-20L2
[29] = test system: HT-29
[30] = test system: SK-MEL-2
[31] = test system: SNB-75
[32] = test system: HL-60
[33] = test system: OVCAR-4
[34] = test system: OVCAR-3
[35] = test system: DLD-1
[36] = test system: OVCAR-8
[37] = test system: HCC 2998
[38] = test system: K562
[39] = test system: NCI-H522
[40] = test system: UO-31
[41] = test system: RXF 631
[42] = test system: SNB-78
[43] = test system: UACC-62
[44] = test system: A498
[45] = test system: NCI-H460
[46] = test system: HCT-15
[47] = test system: HCT-116
[48] = test system: CCRF-CEM
[49] = test system: TK-10
[50] = test system: KM12
[51] = test system: MOLT-4
[52] = test system: U-251
[53] = test system: ACHN
[54] = test system: DMS-273
[55] = test system: NCI-H226
[56] = test system: HOP-92
[57] = test system: RXF 393
[58] = test system: SR

Measured: GI50

COc1ccc(C(=O)C(CO)Oc2ccccc2OC)cc1OC (stereo not drawn)
> 100 µM: [46]
inactive: [1] > 100 µM | [2] > 100 µM | [3] > 100 µM | [4] > 100 µM | [5] > 100 µM | [6] > 100 µM | [7] > 100 µM | [8] > 100 µM | [9] > 100 µM | [10] > 100 µM | [11] > 100 µM | [12] > 100 µM | [13] > 100 µM | [14] > 100 µM | [15] > 100 µM | [16] > 100 µM | [17] > 100 µM | [18] > 100 µM | [19] > 100 µM | [20] > 100 µM | [21] > 100 µM | [22] > 100 µM | [23] > 100 µM | [24] > 100 µM | [25] > 100 µM | [26] > 100 µM | [27] > 100 µM | [28] > 100 µM | [29] > 100 µM | [30] > 100 µM | [31] > 100 µM | [32] > 100 µM | [33] > 100 µM | [34] > 100 µM | [35] > 100 µM | [36] > 100 µM | [37] > 100 µM | [38] > 100 µM | [39] 91 µM | [40] > 100 µM | [41] > 100 µM | [42] > 100 µM | [43] > 100 µM | [44] > 100 µM | [45] > 100 µM | [47] > 100 µM | [48] > 100 µM | [49] > 100 µM | [50] > 100 µM | [51] > 100 µM | [52] > 100 µM | [53] > 100 µM | [54] > 100 µM

COc1ccc(-c2oc(/C=N/NC(N)=S)c([N+](=O)[O-])c2-c2ccc(OC)c(OC)c2)cc1OC
29.4 µM: [46]
inactive: [1] 20.7 µM | [2] 36.1 µM | [3] 28.3 µM | [4] 31.8 µM | [5] 24.2 µM | [7] 32 µM | [8] 22.8 µM | [9] 36 µM | [10] 27.1 µM | [11] 26.7 µM | [12] 48.3 µM | [13] 28 µM | [14] 19.4 µM | [15] 25.4 µM | [16] 21 µM | [17] 20.3 µM | [18] 16.6 µM | [19] 32.1 µM | [20] 35.6 µM | [21] 23.9 µM | [22] 20.7 µM | [23] 17.3 µM | [24] 15.9 µM | [25] 33.1 µM | [26] > 100 µM | [27] 17 µM | [28] 18.2 µM | [29] 23.1 µM | [30] 15.3 µM | [31] 18 µM | [32] 21.7 µM | [33] 21.7 µM | [34] 16.7 µM | [35] 24.3 µM | [36] 23.9 µM | [38] > 10 µM | [39] 23.6 µM | [55] 28.1 µM | [41] 30.4 µM | [43] 20.1 µM | [56] 24.2 µM | [47] 19.2 µM | [48] > 10 µM | [57] 13.2 µM | [49] 34 µM | [53] 18.5 µM

N#CCc1ccccc1/C(C#N)=C1/OC(=N)C(c2ccccc2CC#N)C1=O (stereo not drawn)
inactive: [1] > 100 µM | [3] > 100 µM | [4] > 100 µM | [5] > 100 µM | [6] > 100 µM | [8] > 100 µM | [10] > 100 µM | [15] > 100 µM | [16] > 100 µM | [17] 43.2 µM | [18] > 100 µM | [19] > 100 µM | [20] > 100 µM | [21] > 100 µM | [22] > 100 µM | [24] > 100 µM | [25] > 100 µM | [27] > 100 µM | [28] > 100 µM | [29] 92 µM | [31] > 100 µM | [32] > 100 µM | [34] > 100 µM | [38] > 100 µM | [39] 47.4 µM | [55] > 100 µM | [41] > 100 µM | [43] 42.2 µM | [56] > 100 µM | [58] > 100 µM | [47] > 100 µM | [48] > 100 µM | [49] > 100 µM | [50] > 100 µM | [51] 57.8 µM | [53] > 100 µM | [54] > 100 µM
